Test results reported in ChEMBL document CHEMBL5241074, “Dual-target compounds for Alzheimer's disease: Natural and synthetic AChE and BACE-1 dual-inhibitors and their structure-activity relationship (SAR)” (Eur J Med Chem, 2021).

Key:
[1] = target: T1, Beta-secretase 1 (Homo sapiens, UniProt P56817); test: Inhibition of BACE1 (unknown origin) at 2.5 uM relative to control
[2] = target: T2, Acetylcholinesterase (Homo sapiens, UniProt P22303); test: Inhibition of AChE (unknown origin)
[3] = target: T1, Beta-secretase 1; test: Inhibition of BACE1 (unknown origin) at 5 uM relative to control
[4] = target: T1, Beta-secretase 1; test: Inhibition of BACE1 (unknown origin)
[5] = target: T2, Acetylcholinesterase; test: Inhibition of AChE (unknown origin) at 100 uM relative to control
[6] = target: T1, Beta-secretase 1; test: Inhibition of BACE1 (unknown origin) at 100 uM relative to control

T1 sequence (P56817 whole entry): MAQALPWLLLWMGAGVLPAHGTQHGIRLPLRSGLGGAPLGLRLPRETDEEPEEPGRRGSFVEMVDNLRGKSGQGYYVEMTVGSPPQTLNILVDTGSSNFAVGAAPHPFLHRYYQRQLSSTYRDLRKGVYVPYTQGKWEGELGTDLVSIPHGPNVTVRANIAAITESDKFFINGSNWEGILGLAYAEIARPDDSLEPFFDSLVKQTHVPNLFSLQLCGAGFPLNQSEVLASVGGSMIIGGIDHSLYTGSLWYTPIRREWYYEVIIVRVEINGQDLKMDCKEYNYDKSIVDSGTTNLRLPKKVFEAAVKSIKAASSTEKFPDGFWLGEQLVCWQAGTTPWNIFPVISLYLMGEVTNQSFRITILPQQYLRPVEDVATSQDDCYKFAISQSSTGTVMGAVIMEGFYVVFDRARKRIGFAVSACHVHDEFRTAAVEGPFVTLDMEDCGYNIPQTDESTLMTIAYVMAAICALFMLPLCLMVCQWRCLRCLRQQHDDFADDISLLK
T2 sequence (P22303 whole entry): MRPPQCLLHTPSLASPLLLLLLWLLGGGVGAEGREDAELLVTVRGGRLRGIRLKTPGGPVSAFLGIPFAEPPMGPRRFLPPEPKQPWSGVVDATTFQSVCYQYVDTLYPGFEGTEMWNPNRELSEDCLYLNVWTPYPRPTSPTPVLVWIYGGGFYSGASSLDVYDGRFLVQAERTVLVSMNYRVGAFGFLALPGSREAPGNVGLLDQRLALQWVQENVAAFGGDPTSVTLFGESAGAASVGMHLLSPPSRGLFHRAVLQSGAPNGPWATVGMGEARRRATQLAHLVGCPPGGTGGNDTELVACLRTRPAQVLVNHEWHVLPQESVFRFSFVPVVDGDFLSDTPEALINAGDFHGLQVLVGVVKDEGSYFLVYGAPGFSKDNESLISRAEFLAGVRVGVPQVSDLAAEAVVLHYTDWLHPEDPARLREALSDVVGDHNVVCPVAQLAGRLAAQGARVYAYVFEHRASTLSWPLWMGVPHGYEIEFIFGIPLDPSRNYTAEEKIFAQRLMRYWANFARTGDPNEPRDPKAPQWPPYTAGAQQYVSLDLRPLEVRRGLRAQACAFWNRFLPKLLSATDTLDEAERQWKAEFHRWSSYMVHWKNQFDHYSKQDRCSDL

SMILES	IC50 [2] [nM]	IC50 [4] [nM]	also measured
O=C(NCCCCCCCCNc1c2c(nc3cc(Cl)ccc13)CCCC2)c1ccc2nc(-c3ccc(Cl)cc3)c3c(c2c1)OCCC3			inhibition [1]: 18.5%
CCC1=CC2Cc3nc4cc(Cl)ccc4c(NCCN4CCC(CC5Cc6cc(OC)c(OC)cc6C5)CC4)c3C(C1)C2 (single isomer, unassigned; (-))	28.6		inhibition [3]: 12.5%
COc1ccc(NCC2CCN(Cc3ccccc3)CC2)cc1OC	145	243	
O=C(/C=C/c1ccc(F)cc1)c1cc(I)c(Br)cc1O	11	4.7	
COc1ccc(-c2oc3cc(Br)c(I)cc3c(=O)c2O)cc1		15.7	
O=C(CCc1ccc2nc(-c3ccccc3)c3c(c2c1)OCCC3)NCCCCCCNc1c2c(nc3cc(Cl)ccc13)CCCC2			inhibition [1]: 19.6%
CC(C)=CCc1c(O)ccc(C(=O)/C=C/c2ccc(O)cc2)c1O			inhibition [5]: 83%; inhibition [6]: 34%
O=c1c(/C=N/Nc2ccc(C(F)(F)F)cc2)coc2c1ccc1oc(-c3ccc(Cl)cc3)cc12	5400	13600	
O=c1c(O)c(-c2ccc(O)c(O)c2)oc2cc(O)cc(O)c12 [QUERCETIN]	2910		
O=c1c(/C=N/Nc2ccc(C(F)(F)F)cc2)coc2cc3oc(-c4cccc(F)c4)cc3cc12	7600	17300	
CC(C)=CCC/C(C)=C/CC/C(C)=C\Cc1c(O)cc(O)c(CC=C(C)C)c1-c1cc2ccc(O)cc2o1	13900	2030	
COc1cc2c(cc1CC=C(C)C)C(=O)CC(c1ccc(O)cc1)O2 (stereo not given)			inhibition [5]: 80%; inhibition [6]: 20%
C[C@@H]1O[C@@H](OC[C@H]2O[C@@H](Oc3c(-c4ccc(O)c(O)c4)oc4cc(O)cc(O)c4c3=O)[C@H](O)[C@@H](O)[C@@H]2O)[C@H](O)[C@H](O)[C@H]1O [RUTIN]	113000	3.8	
COc1cc2c(cc1OC)CC(CC1CCN(CCNc3c4c(nc5cc(Cl)ccc35)CC3C=C(C)CC4C3)CC1)C2 (stereo not given)	13		inhibition [3]: 24.6%
Cc1cccc(C(=O)N2Cc3ccc(N4C(=O)c5ccccc5C4=O)cc3CC2=O)c1	25.5	4.45	
COc1ccc(C(=O)N2Cc3ccc(N4C(=O)c5ccccc5C4=O)cc3CC2=O)cc1	81.8	1.69	
CCC1=CC2Cc3nc4cc(Cl)ccc4c(NCCCN4CCC(CC5Cc6cc(OC)c(OC)cc6C5)CC4)c3C(C1)C2 (racemic) [listing 1 of 2 here]	6.32		
COc1ccc(-c2cc3cc4c(=O)c(/C=N/Nc5ccc(C(F)(F)F)cc5)coc4cc3o2)cc1	5400	25300	
CC12CC(c3c(O)cc(-c4cc5ccc(O)cc5o4)cc3O)CC3c4ccc(O)cc4OC31C2 (stereo not given)	> 200000	1040	
O=C(CCc1ccc2nc(-c3ccccc3)c3c(c2c1)OCCC3)NCCCCCCCNc1c2c(nc3cc(Cl)ccc13)CCCC2	11.4		inhibition [1]: 34.4%
O=c1c(/C=N/Nc2ccc(C(F)(F)F)cc2)coc2cc3oc(-c4cccc(Cl)c4)cc3cc12	18300	32800	

SMILES	IC50 [2] [nM]	IC50 [4] [nM]	also measured
Cc1cc2c(c(C)c1CCO[C@@H]1O[C@H](CO)[C@@H](O)[C@H](O)[C@H]1O)C(=O)C(C)(C)[C@H]2O	27400	10700	
Cc1cc2c(c(C)c1CCO[C@@H]1O[C@H](CO)[C@@H](O)[C@H](O)[C@H]1O)C(=O)[C@H](C)C2	2550	18000	
CC(C)=CCCC1(C)C=Cc2c(ccc3cc(-c4cc(O)cc(O)c4CC=C(C)C)oc23)O1 (stereo not given)	4610		
COc1cc2c(cc1OC)CC(CC1CCN(CCCNc3c4c(nc5cc(Cl)ccc35)CC3C=C(C)CC4C3)CC1)C2 (single isomer, unassigned; (-)) [listing 1 of 2 here]	2.61		
COc1cc(O)c(C(=O)/C=C/c2ccc(F)cc2)cc1I	9.38	25.1	
COc1cc(/C=C/c2nnc(-c3ccc(F)cc3)o2)ccc1O	0.284	0.479	
COc1ccc(NC(=O)C2CCN(C(=O)c3ccccc3)CC2)cc1	9.78	19.1	
O=C(NCCCCCCCNc1c2c(nc3cc(Cl)ccc13)CCCC2)c1ccc2nc(-c3ccc(Cl)cc3)c3c(c2c1)OCCC3			inhibition [1]: 14.5%
CCC1=CC2Cc3nc4cc(Cl)ccc4c(NCCCN4CCC(CC5Cc6cc(OC)c(OC)cc6C5)CC4)c3C(C1)C2 (stereo in doubt; (-)-36b) [listing 1 of 2 here]	3.85		
Oc1cc(O)cc(Oc2c(O)cc(O)c3c2Oc2c(cc(O)c(-c4c(O)cc5c(c4O)Oc4c(Oc6cc(O)cc(O)c6)c(O)cc(O)c4O5)c2O)O3)c1	4590		
COc1ccc(NCC2CCN(Cc3ccccc3)CC2)cc1	165	253	
COc1cc2c(cc1OC)CC(CC1CCN(CCCNc3c4c(nc5cc(Cl)ccc35)CC3C=C(C)CC4C3)CC1)C2 (racemic) [listing 1 of 2 here]			inhibition [3]: 29.1%
COc1cc2c(cc1OC)CC(CC1CCN(CCCNc3c4c(nc5cc(Cl)ccc35)CC3C=C(C)CC4C3)CC1)C2 (racemic) [listing 2 of 2 here]	5.37		
COc1ccc(/C=C/C(=O)c2cc(I)c(Cl)cc2O)cc1	11.7	13.8	
C/C=C1/C(O[C@@H]2O[C@H](CO)[C@@H](O)[C@H](O)[C@H]2O)OC=C(C(=O)OC)C1CC(=O)OCCc1ccc(O)c(O)c1 (stereo not given in full)		2760	
COc1ccccc1NCC1CCN(Cc2ccccc2)CC1	157	277	
COc1cc(/C=C/c2nnc(-c3ccc(Cl)cc3)o2)ccc1O	0.334	0.628	
Cc1cc2c(c(C)c1CCO[C@@H]1O[C@H](CO)[C@@H](O)[C@H](O)[C@H]1O)C(=O)[C@H](C)[C@H]2O	3770	9740	
O=C(/C=C/c1ccc(O)c(O)c1)O[C@@H]1[C@H](O)C[C@@](O)(C(=O)O)C[C@H]1OC(=O)/C=C/c1ccc(O)c(O)c1	2140	3310	
O=c1c(O)c(-c2ccc(Cl)cc2)oc2cc(F)c(I)cc12	3.45	16.7	
COc1cc(/C=C/c2nnc(-c3ccc(C(F)(F)F)cc3)o2)ccc1O	0.068	0.255	

SMILES	IC50 [2] [nM]	IC50 [4] [nM]	also measured
COc1ccccc1NC(=O)C1CCN(C(=O)c2ccccc2)CC1	8.46	18.5	
O=c1c(/C=N/Nc2ccc(C(F)(F)F)cc2)coc2c1ccc1oc(-c3cccc(F)c3)cc12	10400	15800	
CCC1=CC2Cc3nc4cc(Cl)ccc4c(NCCCN4CCC(CC5Cc6cc(OC)c(OC)cc6C5)CC4)c3C(C1)C2 (racemic) [listing 2 of 2 here]			inhibition [3]: 18%
Cc1cc2c(c(C)c1CCO[C@@H]1O[C@H](CO)[C@@H](O)[C@H](O)[C@H]1O)C(=O)[C@@H](C)[C@H]2O	9170		
O=c1c(O)c(-c2ccc(F)cc2)oc2cc(F)c(I)cc12	3.23	32.2	
COc1cc(/C=C/c2nnc(-c3ccc(F)cc3F)o2)ccc1O	0.19	0.624	
CCC1=CC2Cc3nc4cc(Cl)ccc4c(NCCCN4CCC(CC5Cc6cc(OC)c(OC)cc6C5)CC4)c3C(C1)C2 (stereo in doubt; (-)-36b) [listing 2 of 2 here]			inhibition [3]: 14.9%
C/C(=C\C1=CCN(C(=O)CCc2ccccc2)C(=O)C1)N1C(=O)c2ccccc2C1=O	55.3	2.07	
COc1cc(/C=C/c2nnc(-c3ccc(OC(F)(F)F)cc3)o2)ccc1O	0.092	0.211	
COc1ccc(NC(=O)C2CCN(C(=O)c3ccccc3)CC2)cc1OC	4.11	18.3	
COc1cc2c(cc1OC)CC(CC1CCN(CCCNc3c4c(nc5cc(Cl)ccc35)CC3C=C(C)CC4C3)CC1)C2 (single isomer, unassigned; (-)) [listing 2 of 2 here]			inhibition [3]: 30.8%
COc1cc(/C=C/c2nnc(-c3ccc(Cl)cc3Cl)o2)ccc1O	0.22	0.864	
COc1ccccc1C(=O)N1Cc2ccc(N3C(=O)c4ccccc4C3=O)cc2CC1=O	81.7	2.96	
O=C1Cc2cc(N3C(=O)c4ccccc4C3=O)ccc2CN1C(=O)c1ccccc1	65.6	5.87	
CC(C)=CCC/C(C)=C/Cc1c(O)ccc2cc(-c3cc(O)cc(O)c3CC=C(C)C)oc12 [MULBERROFURAN D]	23000	3740	
C[C@@H]1O[C@@H](O[C@@H]2[C@@H](O)[C@H](OCCc3ccc(O)c(O)c3)O[C@H](CO)[C@H]2OC(=O)/C=C/c2ccc(O)c(O)c2)[C@H](O)[C@H](O)[C@H]1O [ACETOSIDE]		6.3	
OCCc1ccc(O)c(O)c1 [HYDROXYTYROSOL]		35	
COc1ccc(/C=C/C(=O)c2cc(I)c(OC)cc2O)cc1	11	70.8	
COc1cc(O)cc(-c2cc3ccc(O)c(C/C=C(\C)CCC=C(C)C)c3o2)c1CC=C(C)C	> 200000		
COc1ccc(-c2oc3cc(OC)c(I)cc3c(=O)c2O)cc1	7.19	22.4	
O=C(CCc1ccc2nc(-c3ccccc3)c3c(c2c1)OCCC3)NCCCCCCCCNc1c2c(nc3cc(Cl)ccc13)CCCC2			inhibition [1]: 77.8%
